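Results reflect a 48-hour exposure of cells in 96-well plates to compound at five concentrations. GI50 marks 50% less growth. The concentration for full growth arrest is given as TGI.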 A value given as a limit tells only on which side of the number the result lay.

What all share (assay): NCI anticancer screen, dose series, 48 h
Test [1] relates to CAKI-1 renal.
Test [2] concerns COLO 205 colon.
The test system of test [3] is HCT-116 colon.
In test [4] the test system is HOP-92 NSCLC.
The test system of test [5] is SF-295 CNS.
Test [6] concerns SW-620 colon.
In test [7] the test system is TK-10 renal.
Test [8] concerns NCI-H226 lung.
The subject of test [9] is SR leukemia.
Test [10] concerns UO-31 renal.

Consider `NC(=O)NCc1c(C(N)=O)ncn1Cc1ccccc1`, for which the TGI in test [1], in [2], in test [3], in test [4], in test [5] and in test [6] was greater than 100 µM in each case. Further, in test [7], the TGI was greater than 100 µM.

For the compound `COc1ccc(OC)c2c(C(=O)O)c(Cc3ccccc3)ccc12`, the TGI in test [1], in test [2], in test [3], in [8], in test [5] and in test [9] was greater than 100 µM in each case. Besides, the TGI in test [6], in [7] and in [10] was greater than 100 µM each time.

As for `C[C@H](O)C(=O)N1CCC(CCn2c(Sc3cc4c(cc3Br)OCO4)nc3c(N)ncnc32)CC1`, the GI50 in test [1] was 2.26 µM; in [2], 0.467 µM; in test [3], 0.461 µM; in test [4], 2.19 µM; in test [8] it was 4.01 µM; in [5] it was 0.741 µM. In addition, the GI50 was 0.49 µM in test [6], 1.3 µM in test [7] and 2.05 µM in test [10]. Moreover, the TGI in [1] was greater than 100 µM; in test [2], greater than 100 µM; in test [3] it was greater than 100 µM; in test [4], greater than 100 µM; in [8] it was greater than 100 µM; in test [5], greater than 22.8 µM. Further, the TGI in test [6], in [7] and in test [10] was greater than 100 µM throughout.

Consider `COc1ccc2nc(NC(=O)C(=O)C(C#N)c3ccc([N+](=O)[O-])cc3)sc2c1` (stereo not drawn), for which the TGI in test [1], in [2], in test [3], in [4], in [8] and in test [5] was greater than 100 µM in each case. Moreover, the TGI in test [6], in test [7] and in test [10] was greater than 100 µM throughout.

`CCn1c(SCc2ccc(C)cc2)nnc1-c1nn(-c2ccc(Cl)cc2Cl)c(-c2ccc(Cl)cc2)c1C`: the GI50 in test [1] is 2.83 µM; in test [2] it was 1.51 µM; in test [3], 0.573 µM; in [4], 0.53 µM; in [8], 2.26 µM; in test [5], 2.4 µM. Further, the GI50 was 2.56 µM in [6], 2.61 µM in test [7] and 2.66 µM in test [10]. The TGI in test [1] turned out to be 12.6 µM; in test [2] it was 3.39 µM; in test [3], 10.6 µM; in test [4] it was 4.22 µM; in test [8] it was 13.9 µM; in test [5], 11.7 µM. Also, the figures for the TGI in test [6], in test [7] and in [10] were 12.6 µM, 10.9 µM and 10.8 µM, respectively.

Turning to `Clc1ccc2c(c1)-c1c3c(nn1-c1ccccc1)-c1ccccc1SC3O2` (stereo not drawn), the TGI in test [2], in test [3], in test [4], in test [5], in [6] and in test [7] was greater than 100 µM in each case. Besides, in test [10], the TGI was greater than 100 µM.

On to `O=c1c2cc(Br)cc(Br)c2nc(CCCl)n1CCO`, for which the TGI in [1], in test [2], in [3], in [4], in test [8] and in test [5] was greater than 100 µM each time. The TGI in [6], in [7] and in test [10] was greater than 100 µM throughout.

Regarding `CN(C)c1cc[c]([Sn]([c]2ccc(N(C)C)cc2)([c]2ccc(N(C)C)cc2)[c]2ccc(N(C)C)cc2)cc1`, the GI50 was 5.13 µM in test [1]; 4.19 µM in [2]; 3.94 µM in test [3]; 8.08 µM in test [4]; 10.9 µM in test [5]; 4.66 µM in [6]. Also, the GI50 is 15.7 µM in [7] and 8.76 µM in [10]. Moreover, the TGI was found to be 19.4 µM in test [1]; 17.7 µM in test [2]; 13.9 µM in test [3]; 20.5 µM in [4]; 25.7 µM in [5]; 20.5 µM in test [6]. Moreover, the TGI in [7] turned out to be 31.4 µM; in test [10], 21.1 µM.

For `COc1ccc(CCN2COc3c([C@@H](C)CCC=C(C)C)ccc(C)c3C2)cc1OC`, the GI50 in test [1] was 2.73 µM; in test [2], 1.79 µM; in test [3] it was 2.17 µM; in test [8], 8.64 µM; in test [5], 2.02 µM; in test [6] it was 1.91 µM. The results for the GI50 in [7] and in [10] were 2.19 µM and 2.45 µM, respectively. The TGI came to 12.1 µM in [1]; 3.19 µM in test [2]; 4.94 µM in [3]; 21.6 µM in test [8]; 6.56 µM in test [5]; 4.08 µM in test [6]. Moreover, the TGI in test [7] was found to be 5.95 µM; in [10], 12.3 µM.

For the compound `O=C(c1ccccc1)C1OC12C(=O)Nc1ccccc12` (stereo not drawn), the TGI is 46 µM in test [1]; 34.5 µM in [2]; greater than 100 µM in test [3]; 55.2 µM in test [4]; greater than 100 µM in [8]; 81.8 µM in test [5]. The TGI in test [6] is 62.6 µM; in [7], greater than 100 µM; in [10] it was greater than 100 µM.

Take `O=C(/C=C\c1ccc(NCc2ccc(C(=O)O)cc2)cc1)CCl`: the GI50 in test [1] was 16.6 µM; in test [2] it was 14.2 µM; in test [3] it was 2.5 µM; in test [8], 17.1 µM; in test [5] it was 17.5 µM; in [9], 3.33 µM. In addition, the GI50 in test [6] is 3.14 µM; in [10], 14.6 µM. The TGI in test [1] was 32.8 µM; in [2], 29.4 µM; in test [3], 10.3 µM; in test [8] it was 41.6 µM; in test [5], 34.3 µM; in test [9], 10.9 µM. Further, the values for the TGI in test [6] and in test [10] were 11.6 µM and 29.2 µM, respectively.

Consider `C1C[OH+]CC[OH+]CC[OH+]CC[OH+]CC[OH+]1.[Cl-].[V]`, for which the GI50 was 82.2 µM in test [1]; greater than 100 µM in test [2]; greater than 100 µM in test [3]; 34.3 µM in [4]; 28.1 µM in test [8]; 28.5 µM in test [5]. The GI50 is greater than 100 µM in [6], 83.5 µM in [7] and 86.3 µM in test [10]. In addition, the TGI in test [1], in test [2], in test [3], in test [4], in test [8] and in test [5] was greater than 100 µM each time. The TGI in test [6], in [7] and in test [10] was greater than 100 µM throughout.

`C/C(CC(=O)NCCc1ccccc1)=N\NC(=O)C[n+]1ccccc1`: the TGI in test [2], in [3], in [4], in test [8], in test [5] and in test [6] was greater than 100 µM each time. Moreover, the TGI in [7] and in test [10] was greater than 100 µM each time.

Turning to `CSC(C1c2ccccc2N(c2ccc(C)cc2)c2[nH]c(=O)n(C)c(=O)c21)S(=O)(=O)c1ccc(C)cc1` (stereo not drawn), the TGI in [1], in test [2], in [3], in test [4], in test [8] and in test [5] was greater than 100 µM each time. Moreover, the TGI in [6], in [7] and in [10] was greater than 100 µM throughout.

Turning to `O=C1/C(=C/c2cccc([N+](=O)[O-])c2)COc2ccc(Br)cc21`, the TGI in test [2], in test [3], in test [4], in test [5], in [6] and in [7] was greater than 100 µM each time. The compound also came in with a TGI in test [10] greater than 100 µM.

For the compound `CCSc1nc(SCC)c2cn[nH]c2n1`, the GI50 in test [1] is 22.9 µM; in [2], 34.4 µM; in [3] it was 36.6 µM; in [4] it was 34.6 µM; in test [8], 25.6 µM; in test [5], greater than 100 µM. Besides, the GI50 is 39.5 µM in [6], 58.3 µM in test [7] and 34.9 µM in [10]. In addition, the TGI in [1] is 74.6 µM; in test [2], greater than 100 µM; in test [3] it was greater than 100 µM; in [4], greater than 100 µM; in [8], greater than 100 µM; in [5] it was greater than 100 µM. Further, the TGI in [6], in test [7] and in [10] was greater than 100 µM throughout.

Regarding `O=C(O)[C@H](NS(=O)(=O)c1ccc([N+](=O)[O-])cc1)c1ccccc1`, the TGI in test [1], in test [2], in test [3], in [4], in test [8] and in test [5] was greater than 100 µM in each case. Besides, the TGI in [6], in [7] and in [10] was greater than 100 µM in each case.
